Test results as given in patent publication US6677368B2, “4-aryl substituted indolinones” (Sugen, Inc., priority 2000, dated 2004).

Columns and labels:
Type in all cases: biochemical
P38 = P38 (Homo sapiens, UniProt Q16539); assay: P38 kinase inhibition
SRC = molecular target: T1, SRC (Homo sapiens, UniProt P12931); assay: Src transphosphorylation assay; conditions: recombinant human Src, poly(Glu-Tyr) substrate
T1 construct: purchased UBI 14-117
Procedure: Src Transphosphorylation Assay
This assay is used to screen for inhibitors of the tyrosine kinase Src.
1. Coating buffer: PBS containing sodium azide (0.2 mg/ml).
3. Wash buffer: PBS containing 0.05% v/v Tween 20 (PBS-TWEEN)
5. ATP (40 [M)+MgCl2 (80 mM) in distilled water.
6. MgCl2 (80 mM) in distilled water (for no ATP blanks).
7. Test compounds, 10 mM in DMSO.
8. Assay Buffer: 100 mM HEPES, pH 7.4, containing 2 mM DTT, 0.2 mM sodium orthovanadate and 0.2 mgs/ml BSA.
9. Partially purified recombinant human Src (UBI (14-117)
10. Anti-phosphotyrosine (SUGEN rabbit polyclonal anti-PY).
11. HRP-linked goat anti-rabbit Ig (Biosource International #6430)
12. HRP substrate ABTS or Pierce Peroxidase substrate.
13. Corning ELISA plates.
1. Coat plates with 100 μl of 20 μg/ml poly(Glu-Tyr) (Sigma Cat. No.P0275) containing 0.01% sodium azide. Hold overnight at 4° C.
2. Block with 1% BSA at 100 μl/well for one hour at room temperature.
3. Plate test compounds (10 mM in DMSO) at 2 ul/well on a Costar plate ready for dilution with dH2O and plating to reaction plates.
4. Dilute Src kinase 1:10,000 in Reaction Buffer, for 5 plates prepare 25 ml as follows: 2.5 mls 1M HEPES pH7.4 (stored sterile at 4° C.), 21.85 ml distilled water, 0.1 ml 5% BSA, 0.5 ml 10 mM sodium orthovanadate (stored sterile at 4° C.), 50 μl 1.0M DTT (stored frozen at […]), and 2.5 μl Src Kinase (stored frozen at −80° C.).
5. Add 48 μl of distilled water to the 2 ∥l of each compound in the dilution plate then add 25 μl/well of this to the reaction plate.
6. Add 50 μl of […] to each reaction buffer well and then 25 μl ATP-MgCl2/well (MgCl2 only to no ATP blanks). Incubate at room temperature for 15 minutes on plate shaker. Stop reaction by adding 25 μl of 0.5M EDTA to each well.
7. Wash 4× with PBS-TWEEN.
8. […] Incubate with continuous shaking at room temperature for one hour.
9. Wash plates 4× with PBS-TWEEN.
10. Add 100 μl HPP-linked Ig (1:5,000) in PBS-TWEEN containing 0.5% BSA, 0.025% Non-fat milk powder, 100 μM sodium orthovanadate. Incubate with shaking at room temperature for one hour.
11. Wash plates 4× with PBS-TWEEN and then once with PBS.
12. Develop plate using ABTS or other peroxidase substrate.

PDGFR = molecular target: T2, PDGFR (UniProt P09619); assay: PDGFR bioassay (ELISA, in vitro kinase activity); conditions: PDGFR-β expressing NIH 3T3 cell lysate, 20 μM ATP
T2 construct: PDGFR-β expressing NIH 3T3 cell lysate (SUGEN, Inc.)
Procedure: This assay is used to the in vitro kinase activity of PDGFR in an ELISA assay.
1. Corning 96-well ELISA plates
2. 28D4C10 monoclonal anti-PDGFR antibody (SUGEN, Inc.).
5. Blocking Buffer (same as for EGFR bioassay).
6. PDGFR-β expressing NIH 3T3 cell lysate (SUGEN, Inc.).
11. Kinase buffer phosphorylation mix: for 10 ml, mix 250 μl 1M TRIS, 200 μl 5M NaCl, 100 μl 1M MnCl2 and 501l 100 mM Triton X-100 in enough dH2O to make 10 ml.
12. NUNC 96-well V bottom polypropylene plates.
14. Rabbit polyclonal anti-phosphotyrosine serum (SUGEN, Inc.).
15. Goat anti-rabbit IgG peroxidase conjugate (Biosource Cat. No. ALI0404).
17. Hydrogen peroxide, 30% solution.
1. Coat Corning 96 well ELISA plates with […] 28D4C 10 in 100 μl PBS per well, hold overnight at 4° C.
2. Remove unbound 28D4C10 from wells by inverting plate to remove liquid. Wash 1× with dH2O. Pat the plate on a paper towel to remove excess liquid.
3. Add 150 μl of Blocking Buffer to each well. Incubate for 30 min. at room temperature with shaking.
4. Wash plate 3× with deionized water, then once with TBST. Pat plate on a paper towel to remove excess liquid and bubbles.
5. Dilute lysate in HNTG (10 μg lysate/100 μl HNTG).
6. Add 100 μl of diluted lysate to each well. Shake at room temperature for 60 min.
7. Wash plates as described in Step 4.
8. Add 80 μl working kinase buffer mix to ELISA plate containing captured PDGFR.
9. Dilute test compound 1:10 in TBS in 96-well polypropylene plates.
10. Add 10 μl diluted test compound to -ELISA plate. To control wells, add 10 μl TBS+10% DMSO. Incubate with shaking for 30 minutes at room temperature.
11. Add 10 μl ATP directly to all wells except negative control well (final well volume should be approximately 100 μl with 20 μM ATP in each well.) Incubate 30 minutes with shaking.
12. Stop reaction by adding 10 μl of EDTA solution to each well.
13. Wash 4× with deionized water, twice with TBST.
14. Add 100 μl anti-phosphotyrosine (1:3000 dilution in TBST) per well.
Incubate with shaking for 30-45 min. at room temperature.
16. Add 100 μl Biosource Goat anti-rabbit IgG peroxidase conjugate (1:2000 dilution in TBST) to each well. Incubate with shaking for 30 min. at room temperature.
18. Add 100 μl of ABTS/H2O2 solution to each well.
19. Incubate 10 to 30 minutes with shaking. Remove any bubbles.
20. If necessary stop reaction with the addition of 100 μl 0.2 M HCl per well.
21. Read assay on Dynatech MR7000 ELISA reader with test filter at 410 nM and reference filter at 630 nM.

Chain of P38 (Q16539 whole entry): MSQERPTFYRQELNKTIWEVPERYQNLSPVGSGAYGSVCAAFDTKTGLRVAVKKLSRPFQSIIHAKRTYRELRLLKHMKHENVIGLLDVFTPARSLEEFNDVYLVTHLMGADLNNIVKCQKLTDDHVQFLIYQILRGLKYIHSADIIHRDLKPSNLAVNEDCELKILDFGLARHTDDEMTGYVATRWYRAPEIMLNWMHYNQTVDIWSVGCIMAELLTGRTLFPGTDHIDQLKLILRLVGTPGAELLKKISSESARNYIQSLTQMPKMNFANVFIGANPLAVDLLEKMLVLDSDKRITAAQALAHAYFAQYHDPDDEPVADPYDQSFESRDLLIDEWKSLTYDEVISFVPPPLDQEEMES
T1 sequence (P12931 whole entry): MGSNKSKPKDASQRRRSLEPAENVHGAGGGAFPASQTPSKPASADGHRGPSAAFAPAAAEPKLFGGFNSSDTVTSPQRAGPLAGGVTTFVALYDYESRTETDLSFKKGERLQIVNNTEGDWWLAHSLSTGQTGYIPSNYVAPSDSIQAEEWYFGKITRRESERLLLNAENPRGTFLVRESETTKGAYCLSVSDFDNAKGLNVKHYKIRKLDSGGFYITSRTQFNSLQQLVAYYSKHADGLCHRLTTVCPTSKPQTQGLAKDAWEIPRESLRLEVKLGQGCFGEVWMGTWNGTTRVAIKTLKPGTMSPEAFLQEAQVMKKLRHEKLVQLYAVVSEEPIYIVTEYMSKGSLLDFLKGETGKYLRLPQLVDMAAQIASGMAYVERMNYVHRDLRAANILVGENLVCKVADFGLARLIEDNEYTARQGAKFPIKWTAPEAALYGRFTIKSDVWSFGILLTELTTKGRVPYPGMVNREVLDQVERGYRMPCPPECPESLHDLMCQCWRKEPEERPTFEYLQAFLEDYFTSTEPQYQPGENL

| IC50 (P38) | IC50 (SRC) | IC50 (PDGFR) | SMILES |
| --- | --- | --- | --- |
| > 10 µM | 1.02 µM | 0.44 µM | CCN(CC)CCNC(=O)c1c(C)[nH]c(/C=C2\C(=O)Nc3cccc(-c4ccccc4)c32)c1C [Example 3, 2,4-Dimethyl-5-(2-oxo-4-phenyl-1,2-dihydro-indol-3-ylidenemethyl)-1H-pyrrole-3-carboxylic Acid (2-Diethylamino-ethyl)-amide] |
| > 10 µM | > 20 µM | 14.6 µM | Cc1[nH]c(/C=C2\C(=O)Nc3cccc(-c4ccc(F)cc4)c32)c(C)c1C(=O)N1CCN(C)CC1 [Example 4, 3-[3,5-Dimethyl-4-(4-methyl-piperazine-1-carbonyl)-1H-pyrrol-2-ylmethylene]-4-(4-fluoro-phenyl)-1,3-dihydro-indol-2-one] |
| > 10 µM | 1.82 µM | 11.9 µM | Cc1cc(C(=O)N2CC[C@H](N(C)C)C2)c(/C=C2\C(=O)Nc3cccc(-c4ccc(F)cc4)c32)[nH]1 [Example 10, 3-[3-((S)-3-Dimethylamino-pyrrolidine-1-carbonyl)-5-methyl-1H-pyrrol-2-ylmethylene]-4-(4-fluoro-phenyl)-1,3-dihydro-indol-2-one] |
| 4.9 µM | 2.27 µM | 10.1 µM | Cc1[nH]c(/C=C2\C(=O)Nc3cccc(-c4cccc(F)c4)c32)c(C)c1C(=O)NCCn1ccnn1 [Example 15, 5-[4-(3-Fluoro-phenyl)-2-oxo-1,2-dihydro-indol-3-ylidenemethyl]-2,4-dimethyl-1H-pyrrole-3-carboxylic Acid (2-[1,2,3]Triazol-1-yl-ethyl)-amide] |
| > 10 µM | 10.4 µM | 3.39 µM | Cc1[nH]c(/C=C2\C(=O)Nc3cccc(-c4ccc(Cl)cc4)c32)c(C)c1C(=O)N1CCN(C)CC1 [Example 20, 4-(4-Chloro-phenyl)-3-[3,5-dimethyl-4-(4-methyl-piperazine-1-carbonyl)-1H-pyrrol-2-ylmethylene]-1,3-dihydro-indol-2-one] |
| – | > 20 µM | 3.76 µM | Cc1[nH]c(/C=C2\C(=O)Nc3cccc(-c4ccccc4F)c32)c(C)c1C(=O)N1CCN(C)CC1 [Example 93, 3-[3,5-Dimethyl-4-(4-methyl-piperazine-1-carbonyl)-1H-pyrrol-2-ylmethylene]-4-(2-fluoro-phenyl)-1,3-dihydro-indol-2-one] |
| – | > 20 µM | > 20 µM | Cc1cc(C(=O)NCCn2ccnn2)c(/C=C2\C(=O)Nc3cccc(-c4ccccc4F)c32)[nH]1 [Example 99, 2-[4-(2-Fluoro-phenyl)-2-oxo-1,2-dihydro-indol-3-ylidenemethyl]-5-methyl-1H-pyrrole-3-carboxylic Acid (2-[1,2,3]Triazol-1-yl-ethyl)-amide] |
| – | 7.09 µM | 19 µM | Cc1[nH]c(/C=C2\C(=O)Nc3cccc(-c4cccc(C(F)(F)F)c4)c32)c(C)c1C(=O)N1CCN(C)CC1 [Example 104, 3-[3,5-Dimethyl-4-(4-methyl-piperazine-1-carbonyl)-H-pyrrol-2-ylmethylene]-4-(3-trifluoromethyl-phenyl)-1,3-dihydro-indol-2-one] |
| – | 8.61 µM | 9.87 µM | Cc1cc(C(=O)NCCN2CCCC2)c(/C=C2\C(=O)Nc3cccc(-c4ccc(F)c(Cl)c4)c32)[nH]1 [Example 119, 2-[4-(3-Chloro-4-fluoro-phenyl)-2-oxo-1,2-dihydro-indol-3-ylidenemethyl]-5-methyl-1H-pyrrole-3-carboxylic Acid (2-Pyrrolidin-1-yl-ethyl)-amide] |
| – | 4.31 µM | > 20 µM | CCN(CC)CCNC(=O)c1c(C)[nH]c(/C=C2\C(=O)Nc3cccc(-c4ccc(OC(F)(F)F)cc4)c32)c1C [Example 140, 2,4-Dimethyl-5-[2-oxo-4-(4-trifluoromethoxy-phenyl)-1,2-dihydro-indol-3-ylidenemethyl]-1H-pyrrole-3-carboxylic Acid (2-Diethylamino-ethyl)-amide] |
